From patent US20250041356A1, “COMBINATION CANCER THERAPY” (Prokarium Limited, priority 2021, published 2025)

How the values were obtained:
[1] = tested on: 4T1-Luc2-1A4 tumour cells; conditions: monitored over 52 days; log-rank (Mantel-Cox) test
Procedure: Dilutions of the attenuated Salmonella Typhimurium strain (MD58) were made in PBS as required to achieve 1×10^9 CFU/100 μl for oral gavage.
6-7-week-old female BALB/c mice were pre-treated orally with 1×10^9 CFU Salmonella MD58 or PBS control. On day 0 mice were inoculated in mammary fat pad #4 with 5×10^5 4T1-Luc2-1A4 tumour cells. […] Primary tumour volumes were measured 3 times per week, lung tumour burden was measured by bioluminescent imaging (BLI) and survival was monitored until 52 days after tumour inoculation

[2] = tested on: Primary human monocytes; assay: In vitro conditioning of primary human monocytes, TNFα release after PAMP/DAMP challenge (ELISA); type: cell-based
Procedure: Primary human monocytes were conditioned in vitro with Salmonella for 30 minutes prior to being washed with an antibiotic to remove all Salmonella and subsequently rested for 6 days in the presence of M-CSF. Following the 6 day rest period, the human monocytes were stimulated with PAMPs, DAMPs or a media only control, and the level of TNFα release measured via ELISA.

Row | Compound | survival compared to PBS+saline control [1] | level of release of TNFα compared to cells treated with media (negative control) ([2]; challenge other than PAMPs (DAMPs)) | responsiveness to PAMPs and DAMPs, level of release of TNFα ([2]; conditioned 30 minutes, rested 6 days with M-CSF, then challenged)
1 | O=P1(N(CCCl)CCCl)NCCCO1 (stereo not drawn) [PBS+cyclophosphamide, cyclophosphamide] | significantly better survival |  | 
2 | β-glucan |  | no difference | only induces hyperresponsiveness in response to challenge with PAMPs
